Entries after “also recorded” stand apart in the source; their conditions may differ.
How the values were obtained:
[1] = Tasimelteon jet lag disorder (JLD) clinical program; format: in vivo, human; settings: individuals experiencing circadian advances of five to eight hours
[2] = 10 mg, 20 mg, 50 mg and 100 mg daily doses; 5-hour advance in sleep-wake cycle; cited from earlier work
[3] = preclinical models of acute phase-shifting and chronic re-entrainment; cited from earlier work
[4] = Next-day driving performance on the CRCDS automobile driving simulator after a bedtime dose; format: in vivo, human; settings: bedtime dose tasimelteon 20 mg or zopiclone 7.5 mg
Protocol: In this study, 48 healthy volunteers operate an automobile driving simulator the moming after being administered a bedtime dose of tasimelteon 20 mg, zopiclone 7.5 mg, or placebo. Volunteers are instructed to operate the driving simulator for about one hour with a speed of 55 mph while maintaining lane position.
Driving performance is assessed by a number of validated measures, including standard deviation from lateral position (SDLP), a measure of lane weaving.
An SDLP of 4.4 cm as compared to control is considered equivalent to the driving impairment associated with a blood alcohol content (BAC) of 0.05%, the threshold for drunk driving in many countries.

[5] = from prescribing information; cited from earlier work

## CCC(=O)NC[C@@H]1C[C@H]1c1cccc2c1CCO2 [tasimelteon]
[1]
  benefit in jet lag disorder (in words): significant benefits
[2]
  shifting dim light melatonin onset and sleep efficacy relative to placebo (in words): positive outcomes
[3]
  chronobiotic activity (in words): potent chronobiotic activity

## CN1CCN(C(=O)OC2c3nccnc3C(=O)N2c2ccc(Cl)cn2)CC1 (stereo not drawn) [zopiclone]
[4]; 48 healthy volunteers, driving simulator 9 hours post-dose, about one hour at 55 mph
  SDLP Difference (least squares means) vs Placebo: 4.14 cm
[4]; evaluated nine hours after dosing
  next-day driving impairment compared to placebo (in words): does significantly impair driving ability; also recorded: meaningful and significant effect on lane weaving

## Cc1ccc(-n2nccn2)c(C(=O)N2CCN(c3nc4cc(Cl)ccc4o3)CC[C@H]2C)c1 [BELSOMRA]
[5]
  driving performance in clinical studies (in words): clinically meaningful impaired driving performance in some subjects
